This test has as its target T1, BACE-1 enzyme (Homo sapiens, UniProt P56817).
T1 construct: purchased R & D Systems 931AS
The experiment in a line: BACE Fluorescence Resonance Energy Transfer (FRET) Assay. The conditions noted are these: pH 4-4.5, 30 min pre-incubation, about 1.5 hours reaction. The test is classed as biochemical. The procedure:
BACE Fluorescence Resonance Energy Transfer (FRET) Assay
In the following assay, the proteolytic activity of BACE is measured by observing cleavage of a fluorescent group from a peptide substrate containing a rhodamine fluorescent donor and a quenching acceptor.
The inhibitory activity of compounds of Formula (I) may be compared to a statine derived control inhibitor STA200 (MP Biomedical Cat. #STA-200). The cleavage reaction occurs when a BACE-1 substrate (Invitrogen, Cat. #P2986) was added to a reaction mixture containing BACE-1 enzyme (R & D Systems, Cat. #931AS) and allowed to proceed for about 1.5 hours. Fluorescence, used as a marker of BACE activity, is monitored using 540 nm excitation and 585 nm emission wavelengths (Envision, Perkin Elmer).
A typical assay reaction contains BACE-1 enzyme—in assay buffer (50 mM sodium acetate, pH 4-4.5, 0.01% CHAPS (3-[(3-Cholamidopropyl)dimethylammonio]-1-propanesulfonate), 0.0125% TritonX-100, 0.006% EDTA) which is pre-incubated for 30 minutes with test compound in 7.5% DMSO. The reaction is initiated with the addition of BACE-1 substrate in assay buffer and allowed to proceed for about 1.5 hours at room temperature. Assays are conducted in black 384-well microtiter plates and scanned at room temperature using 540 nm excitation and 585 nm emission wavelengths.
In some instances, the percent inhibition at a given concentration is reported instead of the IC50.
T1 sequence (P56817 46-457 limits assumed): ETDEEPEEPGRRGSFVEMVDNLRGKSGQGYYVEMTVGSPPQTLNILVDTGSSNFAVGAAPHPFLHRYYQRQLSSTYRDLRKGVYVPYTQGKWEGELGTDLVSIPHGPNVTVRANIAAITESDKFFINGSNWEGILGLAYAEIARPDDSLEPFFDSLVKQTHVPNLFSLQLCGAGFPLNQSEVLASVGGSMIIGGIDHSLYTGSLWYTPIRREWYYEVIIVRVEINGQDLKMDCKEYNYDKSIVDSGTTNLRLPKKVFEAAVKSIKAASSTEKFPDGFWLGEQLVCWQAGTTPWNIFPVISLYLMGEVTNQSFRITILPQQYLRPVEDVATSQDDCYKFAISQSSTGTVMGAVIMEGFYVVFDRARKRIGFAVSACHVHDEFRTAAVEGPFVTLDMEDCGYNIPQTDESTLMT
`Cc1cccc2nc(C(=O)Nc3nc4cc(-c5ccc(OC(F)(F)F)cc5)ccc4[nH]3)cn12` [Example 98, 5-Methyl-imidazo[1,2-a]pyridine-2-carboxylic acid [5-(4-trifluoromethoxy-phenyl)-1H-benzoimidazol-2-yl]-amide]: the IC50 – broadly, the concentration that gives 50% inhibition – was 0.44 µM. In turn, `CN(C)C(=O)c1cccn2cc(C(=O)Nc3nc4cc(-c5cccc(C(F)(F)F)c5)ccc4[nH]3)nc12` [Example 230, Imidazo[1,2-a]pyridine-2,8-dicarboxylic acid 8-dimethylamide 2-{[5-(3-trifluoromethyl-phenyl)-1H-benzoimidazol-2-yl]-amide}] came in with an IC50 of 0.28 µM. Compound `Cc1cc(OCCN2CCN(C)CC2)c2nc(C(=O)Nc3nc4cc(-c5cc(F)cc(Cl)c5)ccc4[nH]3)cn2c1` [Example 150, 6-Methyl-8-[2-(4-methyl-piperazin-1-yl)-ethoxy]-imidazo[1,2-a]pyridine-2-carboxylic acid [5-(3-chloro-5-fluoro-phenyl)-1H-benzoimidazol-2-yl]-amide] yielded an IC50 of 0.46 µM.

The compound `O=C(Nc1nc2cc(-c3cccc(OC(F)(F)F)c3)ccc2[nH]1)c1cn2cc(F)cc(N3CCNCC3)c2n1` [Example 134, 6-Fluoro-8-piperazin-1-yl-imidazo[1,2-a]pyridine-2-carboxylic acid [5-(3-trifluoromethoxy-phenyl)-1H-benzoimidazol-2-yl]-amide] showed an IC50 of 0.29 µM. In turn, `CCN(CC)Cc1cccc2nc(C(=O)Nc3nc4cc(-c5cccc(C(F)(F)F)c5)ccc4[nH]3)cn12` [Example 168, 5-Diethylaminomethyl-imidazo[1,2-a]pyridine-2-carboxylic acid [5-(3-trifluoromethyl-phenyl)-1H-benzoimidazol-2-yl]-amide] came in with an IC50 of 0.65 µM. On to `CCOC(=O)c1ccn2cc(C(=O)Nc3nc4cc(-c5cc(F)cc(Cl)c5)ccc4[nH]3)nc2c1` [Example 114, 2-[5-(3-Chloro-5-fluoro-phenyl)-1H-benzoimidazol-2-ylcarbamoyl]-imidazo[1,2-a]pyridine-7-carboxylic acid ethyl ester], for which half-maximal inhibition (IC50) was put at 0.29 µM. The result for `CC(C)(C)NCc1ccc2nc(C(=O)Nc3nc4cc(-c5cccc(C(F)(F)F)c5)ccc4[nH]3)cn2c1` [Example 178, 6-(Tert-Butylamino-methyl)-imidazo[1,2-a]pyridine-2-carboxylic acid [5-(3-trifluoromethyl-phenyl)-1H-benzoimidazol-2-yl]-amide] reads 0.43 µM; that for `CO[C@@H]1CCN(c2cc(F)cn3cc(C(=O)Nc4nc5cc(-c6cc(F)cc(Cl)c6)ccc5[nH]4)nc23)C1` [Example 160, 6-Fluoro-8-((R)-3-methoxy-pyrrolidin-1-yl)-imidazo[1,2-a]pyridine-2-carboxylic acid [5-(3-chloro-5-fluoro-phenyl)-1H-benzoimidazol-2-yl]-amide], 0.75 µM.

`CN1CCN(c2cc(F)cn3cc(C(=O)Nc4nc5cc(-c6cccc(OC(F)(F)F)c6)ccc5[nH]4)nc23)CC1` [Example 135, 6-Fluoro-8-(4-methyl-piperazin-1-yl)-imidazo[1,2-a]pyridine-2-carboxylic acid [5-(3-trifluoromethoxy-phenyl)-1H-benzoimidazol-2-yl]-amide] displayed a half-maximal inhibitory concentration (IC50) of 0.2 µM. `Cc1cccc2nc(C(=O)Nc3nc4cc(N5CCC(c6ccccc6)CC5)ccc4[nH]3)cn12` [Example 36, 5-Methyl-imidazo[1,2-a]pyridine-2-carboxylic acid [5-(4-phenyl-piperidin-1-yl)-1H-benzoimidazol-2-yl]-amide] came in with an IC50 of 1.46 µM.

`CCN(CCO)Cc1ccn2cc(C(=O)Nc3nc4cc(-c5cccc(C(F)(F)F)c5)ccc4[nH]3)nc2c1` [Example 211, 7-{[Ethyl-(2-hydroxy-ethyl)-amino]-methyl}-imidazo[1,2-a]pyridine-2-carboxylic acid [5-(3-trifluoromethyl-phenyl)-1H-benzoimidazol-2-yl]-amide]: 0.24 µM corresponded to half-maximal inhibition (IC50). Take `CC(C)CN(C)Cc1cccc2nc(C(=O)Nc3nc4cc(-c5cccc(C(F)(F)F)c5)ccc4[nH]3)cn12` [Example 191, 5-[(Isobutyl-methyl-amino)-methyl]-imidazo[1,2-a]pyridine-2-carboxylic acid [5-(3-trifluoromethyl-phenyl)-1H-benzoimidazol-2-yl]-amide]: the IC50 turned out to be 1.53 µM. `Cc1cccn2cc(C(=O)Nc3nc4cc(-c5cccc(S(C)(=O)=O)c5)ccc4[nH]3)nc12` [Example 75, 8-Methyl-imidazo[1,2-a]pyridine-2-carboxylic acid [5-(3-methanesulfonyl-phenyl)-1H-benzoimidazol-2-yl]-amide]: the IC50 worked out at 2.07 µM. Regarding `CNC(=O)c1cccn2cc(C(=O)Nc3nc4cc(-c5cccc(C(F)(F)F)c5)ccc4[nH]3)nc12` [Example 229, Imidazo[1,2-a]pyridine-2,8-dicarboxylic acid 8-methylamide 2-{[5-(3-trifluoromethyl-phenyl)-1H-benzoimidazol-2-yl]-amide}], the 50% inhibitory concentration (IC50) is 0.16 µM. In turn, `O=C(Nc1nc2cc(-c3cccc(C(F)(F)F)c3)ccc2[nH]1)c1cn2c(CN3CCCC3)cccc2n1` [Example 175, 5-Pyrrolidin-1-ylmethyl-imidazo[1,2-a]pyridine-2-carboxylic acid [5-(3-trifluoromethyl-phenyl)-1H-benzoimidazol-2-yl]-amide] registered an IC50 of 0.49 µM.

The compound `Cc1cccc2nc(C(=O)Nc3nc4cc(-c5cc(C(F)(F)F)ccc5Cl)ccc4[nH]3)cn12` [Example 67, 5-Methyl-imidazo[1,2-a]pyridine-2-carboxylic acid [5-(2-chloro-5-trifluoromethyl-phenyl)-1H-benzoimidazol-2-yl]-amide] displayed a concentration for half-maximal inhibition (IC50) of 0.53 µM. Take `Cc1ccc2nc(C(=O)Nc3nc4cc(OCc5ccc(C(F)(F)F)cc5)ccc4[nH]3)cn2c1` [Example 60, 6-Methyl-imidazo[1,2-a]pyridine-2-carboxylic acid [5-(4-trifluoromethyl-benzyloxy)-1H-benzoimidazol-2-yl]-amide]: the midpoint of inhibition, the IC50, lay at 0.45 µM. On to `CCOc1cc(F)cn2cc(C(=O)Nc3nc4cc(-c5cc(F)cc(Cl)c5)ccc4[nH]3)nc12` [Example 129, 8-Ethoxy-6-fluoro-imidazo[1,2-a]pyridine-2-carboxylic acid [5-(3-chloro-5-fluoro-phenyl)-1H-benzoimidazol-2-yl]-amide], for which inhibition was half-maximal at 0.43 µM (IC50). Consider `O=C(Nc1nc2cc(-c3cccc(C(F)(F)F)c3)ccc2[nH]1)c1cn2cccc(-c3ccccc3)c2n1` [Example 216, 8-phenyl-N-{5-[3-(trifluoromethyl)phenyl]-1H-benzimidazol-2-yl}imidazo[1,2-a]pyridine-2-carboxamide], for which the IC50 worked out at 0.65 µM. The compound `O=C(Nc1nc2cc(-c3cccc(C(F)(F)F)c3)ccc2[nH]1)c1cn2cccc(CN3CCOCC3)c2n1` [Example 198, 8-Morpholin-4-ylmethyl-imidazo[1,2-a]pyridine-2-carboxylic acid [5-(3-trifluoromethyl-phenyl)-1H-benzoimidazol-2-yl]-amide] showed a half-maximal inhibitory concentration (IC50) of 1.14 µM. `CCOc1ccc(-c2ccc3[nH]c(NC(=O)c4cn5cccc(C)c5n4)nc3c2)cc1F` [Example 81, 8-Methyl-imidazo[1,2-a]pyridine-2-carboxylic acid [5-(4-ethoxy-3-fluoro-phenyl)-1H-benzoimidazol-2-yl]-amide] came in with an IC50 of 1.72 µM. Compound `CO[C@H]1CCN(c2cccc3nc(C(=O)Nc4nc5cc(-c6cc(F)cc(Cl)c6)ccc5[nH]4)cn23)C1` [Example 157, 5-((S)-3-Methoxy-pyrrolidin-1-yl)-imidazo[1,2-a]pyridine-2-carboxylic acid [5-(3-chloro-5-fluoro-phenyl)-1H-benzoimidazol-2-yl]-amide] displayed an IC50 of 0.32 µM.

As for `CCN(C)Cc1cccn2cc(C(=O)Nc3nc4cc(-c5cccc(C(F)(F)F)c5)ccc4[nH]3)nc12` [Example 195, 8-[(Ethyl-methyl-amino)-methyl]-imidazo[1,2-a]pyridine-2-carboxylic acid [5-(3-trifluoromethyl-phenyl)-1H-benzoimidazol-2-yl]-amide], the IC50 stood at 1.08 µM. For `CCc1cccc2nc(C(=O)Nc3nc4cc(-c5cccc(OC(F)(F)F)c5)ccc4[nH]3)cn12` [Example 224, 5-ethyl-N-{5-[3-(trifluoromethoxy)phenyl]-1H-benzimidazol-2-yl}imidazo[1,2-a]pyridine-2-carboxamide], it took 0.55 µM to reach half-maximal inhibition (IC50). The compound `CCCc1cccc2nc(C(=O)Nc3nc4cc(-c5cccc(C(F)(F)F)c5)ccc4[nH]3)cn12` [Example 220, 5-propyl-N-{5-[3-(trifluoromethyl)phenyl]-1H-benzimidazol-2-yl}imidazo[1,2-a]pyridine-2-carboxamide] had an IC50 of 0.38 µM. On to `CCCc1cccc2nc(C(=O)Nc3nc4cc(-c5cccc(OC(F)(F)F)c5)ccc4[nH]3)cn12` [Example 221, 5-propyl-N-{5-[3-(trifluoromethoxy)phenyl]-1H-benzimidazol-2-yl}imidazo[1,2-a]pyridine-2-carboxamide], for which the IC50 is 0.28 µM. The result for `COc1cccn2cc(C(=O)Nc3nc4cc(-c5cc(F)cc(Cl)c5)ccc4[nH]3)nc12` [Example 151, 8-Methoxy-imidazo[1,2-a]pyridine-2-carboxylic acid [5-(3-chloro-5-fluoro-phenyl)-1H-benzoimidazol-2-yl]-amide] reads 0.31 µM.

(Values after patent US20120101093A1, “SUBSTITUTED IMIDAZO[1,2-A]PYRIDINE DERIVATIVES, PHARMACEUTICAL COMPOSITIONS, AND METHODS OF USE AS BETA-SECRETASE INHIBITORS” (HIGH POINT PHARMACEUTICALS, LLC, priority 2009, published 2012).)
